Like-named read-outs stand apart in the source and are kept apart here.
Test system: HT-1080 cells
Test: Inhibition of erastin (10 μM)-induced death in HT-1080 cells (Alamar Blue)
Format: cell-based, human
Settings: for prevention of erastin-induced death: erastin-treated HT-1080 cells
Experimental: Cell viability was typically assessed in 384-well format by Alamar Blue (Invitrogen) fluorescence (ex/em 530/590) measured on a Victor3 platereader (Perkin Elmer, Waltham, Mass.). In some experiments, Trypan Blue dye exclusion counting was performed using an automated cell counter (ViCell, Beckman-Coulter Inc., Brea, Calif.). Cell viability in test conditions is reported as a percentage relative to the negative control treatment.
The ability of various compounds disclosed herein to inhibit death in erastin (10 μM)-treated HT-1080 cells were tested. Cell viability was assessed by Alamar Blue. EC50 values (nM) were computed from dose response curves.
HT-1080 cells are cultured in DMEM containing 10% fetal bovine serum, 1% supplemented non-essential amino acids and 1% pen/strep mixture (Gibco) and maintained in a humidified environment at 37° C. with 5% CO2 in a tissue culture incubator. 1,000 HT-1080 cells are seeded per well in duplicate 384-well plates (Corning) using a BioMek FX liquid handling robot (Beckman Coulter). The next day, the medium is replaced with 36 μL of medium containing 10 μM erastin with 4 μL of medium containing a dilution series (previously prepared) of DMSO, Fer-1 (positive control) or Fer-1 analogs. 24 hours later, 10 μL Alamar Blue (Invitrogen) cell viability solution is added to the growth media to a final concentration of 10%. Cells are incubated a further 6 hours and then the Alamar Blue fluorescence intensity recorded using a Victor 3 platereader (PerkinElmer)(ex/em 530/590). All experiments are performed at least twice and the background (no cells)-subtracted Alamar Blue values for each combination are averaged between replicates.

[1] = SI Table 2, analogs with various hydrophobic moieties, read-out: EC50
[2] = Homo sapiens, HT-1080, SI Table 7, read-out: EC50
[3] = SI Table 3, cyclic amines bearing heteroatoms, read-out: EC50
[4] = Homo sapiens, HT-1080, SI Table 2, analogs with various hydrophobic moieties, read-out: EC50
[5] = Homo sapiens, HT-1080, SI Table 3, cyclic amines bearing heteroatoms, read-out: EC50

## CCOC(=O)c1ccc(NC2CCC(C(C)(C)C)CC2)c(N)c1 (single isomer, unassigned) [SRS13-10_F1, Ethyl 3-amino-4-(4-tert-butylcyclohexyl-amino)benzoate]
[1]
  EC50: 44 nM

## CCOC(=O)c1ccc(NC2CCC(C(C)(C)C)CC2)c(N)c1 (single isomer, unassigned) [SRS13-10_F2, Ethyl 3-amino-4-(4-tert-butylcyclohexyl-amino)benzoate]
[1]
  EC50: 13 nM

## CCOC(=O)c1ccc(NC2CCC(C(C)(C)C)CC2)c(NCc2ccccc2)c1 (single isomer, unassigned) [SRS13-29, ethyl 3-(benzylamino)-4-(4-tert-butylcyclohexylamino)benzoate]
[2]
  EC50: 83 nM

## c1ccc(-c2ccccn2)nc1 [2,2-bipyridyl, reference compound]
Added up to 6 hours after erastin
  protection when added after erastin: substantial protection from death

## NOCC(=O)O [AOA, aminooxyacetic acid, reference compound]
  prevention of erastin-induced death: rescued both HT-1080 and BJeLR cells from erastin-induced ferroptosis

## CC(=O)OCOC(=O)CN(CC(=O)OCOC(C)=O)c1ccccc1OCCOc1ccccc1N(CC(=O)OCOC(C)=O)CC(=O)OCOC(C)=O [BAPTA-AM, reference compound]
  prevention of erastin-induced death: had no effect on erastin-induced death

## CCOC(=O)c1ccc(NC2CCCCC2)c(NCc2ccc(OC(C)=O)cc2)c1 [Compound 4MO43, ethyl 4-(cyclohexylamino)-3-(4-(ethanoyloxy)benzylamino)-benzoate]
[2]
  EC50: 47 nM

## O=C(O)C(Cl)Cl [DCA, dichloroacetic acid, reference compound]
  prevention of erastin-induced death: had no effect on erastin-induced ferroptosis

## COC(=O)CCC(=O)C(=O)OC [DMK, dimethyl alpha ketoglutarate, reference compound]
  prevention of erastin-induced death: the lethality of erastin was restored

## O=C(O)CN(CCOCCOCCN(CC(=O)O)CC(=O)O)CC(=O)O [EGTA, reference compound]
  prevention of erastin-induced death: had no effect on erastin-induced death

## Cc1ccc(N(CC(=O)O)CC(=O)O)c(OCCOc2cc3cc(-c4ncc(C(=O)O)o4)oc3cc2N(CC(=O)O)CC(=O)O)c1 [Fura-2, reference compound]
  prevention of erastin-induced death: had no effect on erastin-induced death

## CC(C)(C)OC(=O)NCCOCCOC(=O)c1ccc(NC2CCCCC2)c(N)c1 [SRS8-37, 2-(2-(tert-butoxycarbonylamino)ethoxy)ethyl 3-amino-4-(cyclohexylamino)benzoate]
Homo sapiens, HT-1080, SI Table 4, various R3 substitutions, read-out: EC50
  EC50: 160 nM

## CCOC(=O)c1ccc(NC2CCOCC2)c(N)c1 [SRS8-41]
[3]
  EC50: 1450 nM

## CCOC(=O)c1ccc(Nc2ccccc2)c(N)c1 [SRS8-42, ethyl 3-amino-4-(phenylamino)benzoate]
[4]
  EC50: 200 nM

## NCCOCCOC(=O)c1ccc(NC2CCCCC2)c(N)c1 [SRS8-43, 2-(2-aminoethoxy)ethyl 3-amino-4-(cyclohexylamino)benzoate]
Homo sapiens, HT-1080, SI Table 4, various R3 substitutions
  EC50: 420 nM

## CCOC(=O)c1ccc(NC2CCC(NC(=O)OC(C)(C)C)CC2)c(N)c1 (stereo not drawn) [SRS8-46, ethyl 3-amino-4-(4-(tert-butoxycarbonylamino)cyclohexyl-amino)benzoate]
[5]
  EC50: 515 nM

## CCOC(=O)c1ccc(NC2CCN(C(=O)OC(C)(C)C)CC2)c(N)c1 [SRS8-47, tert-butyl 4-(2-amino-4-(ethoxycarbonyl)phenylamino)-piperidine-1-carboxylate]
[5]
  EC50: 710 nM

## CCOC(=O)c1ccc(NC2CCC(C)CC2)c(N)c1 (stereo not drawn) [SRS8-48, ethyl 3-amino-4-(4-methylcyclohexylamino)benzoate]
[4]
  EC50: 90 nM

## CCOC(=O)c1ccc(NC2CCC(F)(F)CC2)c(N)c1 [SRS8-52, ethyl 3-amino-4-(4,4-difluorocyclohexylamino)benzoate]
[5]
  EC50: 650 nM

## CCOC(=O)c1ccc(NN2CCN(C)CC2)c(N)c1 [SRS8-53]
[3]
  EC50: 3600 nM

## CCOC(=O)c1ccc(NC2CCN(C(=O)OCC)CC2)c(N)c1 [SRS8-54, ethyl 4-(2-amino-4-(ethoxycarbonyl)phenylamino)piperidine-1-carboxylate]
[5]
  EC50: 2500 nM
